Source: patent US20110028447A1, “INDAZOLE DERIVATIVES” (Pfizer Inc., priority 2008, published 2011)
Read-outs that look alike come from different tables or passages of the source.

Assays:
human CB1 receptor [1] = target: T1, human CB1 receptor (Homo sapiens, UniProt P21554); assay: Human CB1 receptor binding, [3H] CP-55,940 displacement on HEK cell membranes; parameters: expressed in transfected cells; host or cells: HEK cells, doxycycline-induced; membrane preparation
Summary of the method: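 Radioligand displacement: [3H] CP-55,940 at […] final, 1 μg membrane protein per well from HEK cells with tetracycline-inducible human CB1, 60 min at room temperature, pH 7.4 Tris/NaCl/MgCl2/EGTA/BSA buffer. 50 μM WIN-55,212-2 set nonspecific binding; bound label filtered, counted, and fitted for EC50 and Ki values.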

human CB1 receptor [2] = target: T1, human CB1 receptor; assay: [35S] GTPγS binding on membranes of CHO cells expressing the human CB1 receptor (agonism); assay type: biochemical; parameters: expressed in transfected cells; membrane preparation
Method: Membrane preparation: CHO cells expressing the human CB1 receptor were grown to 80% confluence in Ham's F-12 Nutrient Medium (Invitrogen) containing 10% fetal bovine serum (Invitrogen), 1% pen/strep (Invitogen), 1% Nonessential amino acids (Invitrogen) and 500 μg/ml G418 (Invitrogen). Cells were released from flasks using Cell Dissociation Buffer (Invitrogen). Cells were pelleted by centrifugation at 500×G for 5 minutes. Membranes were prepared by resuspending cells in ice cold Assay Buffer (25 mM Tris pH 7.4, 5 mM EDTA, 5 mM EGTA, Complete Protease Inhibitor (Roche)). Cells were lysed with 12 strokes of a dounce homogenizer. Unlysed cells were pelleted by centrifugation at 500×G for 5 minutes. Membranes were pelleted by centrifugation at 25,000×G for 30 minutes. Membranes were resuspended in TEE, dounced 12 strokes, and pelleted a second time at 25,000×G for 30 minutes. Membrane pellet was resuspended in 50 mM Tris pH 7.4, 100 mM NaCl, 3 mM MgCl2, 0.2 mM EGTA, Complete Protease Inhibitor (Roche). Protein concentration was determined using the Micro-BCA Protein Assay Kit (Pierce) using BSA as a standard. Membranes were frozen and stored at −80 degrees Celsius until use.
GTPγS Binding: 40 μl of test compound was incubated with 20 μl of [^35S] GTPγS (Perkin Elmer) (1250 Ci/millimole) and 140 μl of membrane homogenate (5 μg/well) in polypropylene 96-well plates (Corning). Final reaction conditions were 50 mM Tris pH 7.4, 100 mM NaCl, 3 mM MgCl2, 0.2 mM EGTA, 0.04% BSA. After incubation at 37 degrees Celsius for 45 minutes reactions were harvested by vacuum filtration through Unifilter GF/B-96 filters (Perkin Elmer) using a FilterMate Plate Harvester (Perkin Elmer). Filters were rinsed 4 times with ice cold 50 mM Tris pH 7.4, 3 mM MgCl2, 0.2 mM EGTA and dried at 50 degrees Celsius for at least 30 minutes. 40 μl of Microscint-20 (Perkin Elmer) was added per well, and plates were counted using a Top-Count Microplate Scintillation Counter (Perkin Elmer). Binding data were analyzed and EC50 values were calculated using Graph Pad Prism 4.0 Software.

[3] = human CB1, CHO cell membranes, read-out: GTPγS EC50
[4] = GTPγS EC50, human CB1, CHO cell membranes

T1 sequence (P21554 whole entry): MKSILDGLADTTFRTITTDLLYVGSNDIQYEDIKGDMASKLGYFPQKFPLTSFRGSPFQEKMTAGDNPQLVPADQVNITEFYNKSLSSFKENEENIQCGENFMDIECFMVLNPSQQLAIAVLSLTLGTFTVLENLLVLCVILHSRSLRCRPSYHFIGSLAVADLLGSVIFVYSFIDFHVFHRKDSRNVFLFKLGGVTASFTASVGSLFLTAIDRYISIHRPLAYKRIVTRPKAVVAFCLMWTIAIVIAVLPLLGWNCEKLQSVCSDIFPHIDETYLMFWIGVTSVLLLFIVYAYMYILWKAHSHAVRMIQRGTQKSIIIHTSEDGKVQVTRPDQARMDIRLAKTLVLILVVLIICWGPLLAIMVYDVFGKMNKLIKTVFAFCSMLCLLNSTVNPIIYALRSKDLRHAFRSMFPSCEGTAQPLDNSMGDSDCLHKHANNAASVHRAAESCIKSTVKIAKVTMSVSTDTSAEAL

Row | SMILES | Ki (human CB1 receptor [1]; read-out: CB1 Ki) [nM] | EC50 (human CB1 receptor [2]; [3]) [nM] | Ki (human CB1 receptor [1]; CB1 Ki) [nM] | EC50 (human CB1 receptor [2]; [4]) [nM]
1 | CC(C)(C)[C@H](NC(=O)c1nn(Cc2ccc(F)cc2)c2ccccc12)C(=O)N1CCN(S(=O)(=O)C2CC2)CC1 [Example 245] | 2.61 | 12.4 |  | 
2 | CC(C)(C)C(NC(=O)c1nn(Cc2ccc(C#N)cc2F)c2ccccc12)C(=O)NCC(O)CO (stereo not drawn) [Example 90] |  |  | 27.4 | 385
3 | CC(C)(C)C(NC(=O)c1nn(Cc2ccc(F)cc2)c2c(F)cccc12)C(=O)NCCNS(=O)(=O)C1CC1 (stereo not drawn) [Example 186] | 0.19 | 1.03 |  | 
4 | CC(C)(C)[C@H](NC(=O)c1nn(Cc2ccc(C#N)cc2F)c2c(F)cccc12)C(=O)NCc1nnc(C(N)=O)o1 [Example 375] | 7.92 | 31.4 |  | 
5 | CC(C)(C)[C@H](NC(=O)c1nn(Cc2ccccn2)c2ccccc12)C(N)=O [Example 6, N-[(1S)-1-(aminocarbonyl)-2,2-dimethylpropyl]-1-(pyridin-2-ylmethyl)-1H-indazole-3-carboxamide] |  |  | 12.6 | 160
6 | CC(C)(C)[C@H](NC(=O)c1nn(Cc2ccc(F)cc2)c2ccccc12)C(=O)N1CCCC(O)C1 (stereo partly drawn) [Example 251] |  |  | 0.51 | 2.33
7 | CC(C)(C)[C@H](NC(=O)c1nn(Cc2ccc(C#N)cc2)c2c(F)cccc12)C(=O)N[C@@H]1CNC(=O)C1 [Example 457] |  |  | 1.77 | 108
8 | CC(C)(C)[C@H](NC(=O)c1nn(Cc2ccccc2)c2ccccc12)C(=O)NC[C@H](O)CO [Example 73] |  |  | 22.9 | 217
9 | CC(C)(O)C1CCN(C(=O)[C@@H](NC(=O)c2nn(Cc3ccc(F)cc3)c3ccccc23)C(C)(C)C)CC1 [Example 338] | 3.43 | 24.9 |  | 
10 | CC(C)(C)[C@H](NC(=O)c1nn(Cc2ccc(F)cc2)c2ccccc12)C(=O)NCCS(=O)(=O)N1CCOCC1 [Example 357] | 2.93 | 48.6 |  | 
11 | CC(C)(C)[C@H](NC(=O)c1nn(Cc2ccc(F)cc2)c2ccccc12)C(=O)NC[C@H](O)[C@@H](O)CO [Example 517] |  |  | 15.9 | 111
12 | Cc1noc(CNC(=O)C(NC(=O)c2nn(Cc3ccc(F)cc3)c3ccccc23)C(C)(C)C)n1 (stereo not drawn) [Example 139] |  |  | 0.82 | 6.36
13 | CC(C)(C)[C@H](NC(=O)c1nn(Cc2ccc(F)cc2)c2ccccc12)C(=O)NCc1nc(-c2ccccn2)no1 [Example 424] | 1.28 | 10.2 |  | 
14 | CC(C)(C)[C@H](NC(=O)c1nn(Cc2ccc(C#N)cc2)c2cc(F)ccc12)C(=O)NCC(F)(F)F [Example 310] |  |  | 1.48 | 2.1
15 | CC(C)(C)[C@H](NC(=O)c1nn(Cc2ccc(F)cc2)c2ccccc12)C(=O)NCCOc1ccccn1 [Example 478] | 21.3 | 23.7 |  | 
16 | CC(C)(C)[C@H](NC(=O)c1nn(Cc2ccc(F)cc2)c2c(F)c(F)ccc12)C(=O)NCCS(N)(=O)=O [Example 327] |  |  | 4.19 | 18.1
17 | CC(C)(C)[C@H](NC(=O)c1nn(Cc2ccc(F)cc2)c2ccccc12)C(=O)NC[C@H]1C[C@@H]1CO [Example 488] |  |  | 5.61 | 21.4
18 | Cc1cc(CNC(=O)[C@@H](NC(=O)c2nn(Cc3ccc(F)cc3)c3ccccc23)C(C)(C)C)no1 [Example 425] |  |  | 0.92 | 3.36
19 | CC(C)(C)C(NC(=O)c1nn(Cc2ccc(F)cc2)c2c(F)cccc12)C(N)=O (stereo not drawn) [Example 175] |  |  | 0.19 | 0.64
20 | CC(C)(C)[C@H](NC(=O)c1nn(Cc2ccc(F)cc2)c2ccccc12)C(=O)N1CCC(CCO)CC1 [Example 224] | 6.77 | 19.3 |  | 
21 | CC(C)(C)[C@H](NC(=O)c1nn(Cc2ccc(C#N)cc2)c2c(F)cccc12)c1nnc(N)o1 [Example 112] | 0.51 | 31.8 |  | 
